According to patent publication US8748448B2, “Combination analgesic employing opioid agonist and neutral antagonist” (AIKO Biotechnology, priority 2007, dated 2014):
“And” between values parts separate entries of the source, which are not always exact repeats. Identical values can stand only once. “Also recorded” adds a separate entry of the source.

What was measured:
[1] = test system: hydrocodone induced GI inhibition; test: GI transit assay (charcoal meal): reversal of hydrocodone induced GI inhibition
[2] = test system: opioid withdrawal in methadone-dependent subjects; test: Double-blind ascending dose study in methadone maintenance subjects: withdrawal scales, VAS, vital signs, pupillometry, tolerability; settings: for tolerability: b346: at all but the highest dose (1.0 mg)
[3] = test system: morphine-induced slowing of gastrointestinal transit; test: Oral-cecal transit time (lactulose-hydrogen breath test) with 10 mg morphine i.v.; format: in vivo, human
[4] = test system: hydrocodone effects: GI transit (peripheral) vs. antinociception (central); test: Peripheral vs. central potency, (antinociception ID50)/(GI transit ID50); format: in vivo, mice
[5] = 6β-naltrexol plasma pharmacokinetics after i.v. infusion, opioid-naïve volunteers (eIND); settings: humans
[6] = test system: morphine-induced antinociception; settings: cited from earlier work
[7] = test system: morphine-induced pupil constriction; test: Pupillometry with 10 mg morphine i.v.; format: in vivo, human; settings: doses up to 20 mg i.v.
[8] = Tolerability of i.v. 6β-naltrexol infusion in opioid-naïve volunteers; settings: i.v. infusion over 30 minutes, up to 20 mg
[9] = test system: stereotypic circling induced by morphine; settings: non-dependent and chronically dependent mice; cited from earlier work
[10] = test system: morphine-induced analgesia; test: Cold pressor test with 10 mg morphine i.v.; format: in vivo, human; settings: doses up to 20 mg i.v.
[11] = Oral bioavailability of the neutral antagonists
[12] = test system: gastrointestinal activity in methadone-dependent subjects; test: Methadone maintenance subjects: laxation and oral-cecal transit time; format: in vivo, human
Description: The aims of this first-in-human study were to examine the pharmacokinetics of 6β-naltrexol to measure two key characteristics of 6β-naltrexol in highly opioid dependent persons: unwanted aspects of opioid antagonism such as withdrawal, and preferential suppression of opioid effects on the gastrointestinal tract compared to the central nervous system. Eight subjects were enrolled. Of these subjects, four were ineligible for dosing with 6β-naltrexol: three due to small bowel bacterial overgrowth and one due to difficulty with IV catheter insertion. […] The remaining two subjects tolerated the 1.0 mg dose and reported a willingness to take higher doses of 6β-naltrexol.
Laxation was experienced for one subject (25%; 101 minutes post dose) at the 0.05 mg dose, three subjects (75%; 2, 17, and 40 minutes post dose) at the 0.5 mg dose, and two subjects (67%; both at 5 minutes post dose) at the 1.0 mg dose. […] In the two subjects who did undergo oral-cecal transit time testing (lactulose/H2 test), 6β-naltrexol accelerated GI transit time at doses of 0.25 mg and above. A quantitative evaluation of this test was not possible because of insufficient number of subjects (data from only two subjects were evaluable, while a third subject had elevated base-line H2 levels, and a fourth subject was not tested), but a detectable reversal of GI slowing at 0.25 mf 6β-naltrexol is consistent with the finding that regulator bowel movement occurred with two subjects at 0.5 mg 6β-naltrexol.

[13] = Methadone maintenance subjects: serum 6β-naltrexol pharmacokinetics; format: in vivo, human; settings: 1.0 mg dose
Experimental: Using an assay with a lower limit of quantification of 0.5 ng/mL, 6β-naltrexol was detectable in plasma for only six hours. Determination of terminal half-life of elimination was not feasible because of lack of sufficient assay sensitivity.

[14] = Neutral antagonist comparison (Table 3)
[15] = test system: hydrocodone-induced antinociception; test: 55° C. warm-water tail-flick assay: inhibition of hydrocodone-induced antinociception; format: in vivo, mice; settings: for time of peak effect of antinociception inhibition: hydrocodone 3.2 mg/kg i.v.
[16] = antagonist p.o. co-administered with hydrocodone A90 32 mg/kg p.o.

In the case of 6β-naltrexol, the “GI Transit ID50” value ([1]; antagonist i.v., hydrocodone A90 3.2 mg/kg i.v.) is reported as 0.0443 mg/kg, the “GI Transit ID50” value [1, 16] is reported as 1.290 mg/kg and the “GI Transit ID50” value ([1]; antagonist p.o., hydrocodone A90 3.2 mg/kg i.v.) is reported as 0.410 mg/kg. For the same substance, the induction of diarrhea ([1]; on administration of the antagonist) was “absent”, the withdrawal symptoms ([2]; 0.5 mg i.v., methadone-dependent subjects) was “minimal peripheral withdrawal and no detectable CNS withdrawal” and the “subjects tolerating the dose rather well” value ([2]; 1 mg i.v.) was 3 of 4. For the same substance, the “overall withdrawal (VAS, SOWS, OOWS, vital signs)” value ([2]; 0.05-1.0 mg) was “minimal”, the tolerability ([2]; 0.05-1.0 mg) was “well tolerated” and the tolerability ([2]; 0.05-1.0 mg, listed as 6β-Naltrexol) was “generally well tolerated”. For the same substance, the “Diastolic BP, peak value” ([2]; dose 0.05 mg) was 83.0 ± 5.9 mmHg, the “Heart Rate, peak value” ([2]; dose 0.05 mg) was 61.8 ± 6.2 bpm and the “SOWS (total), peak value” ([2]; dose 0.05 mg) was 0.8 ± 1.0. For the same substance, the “Systolic blood pressure (BP), peak value” ([2]; dose 0.05 mg) was 121.3 ± 7.0 mmHg, the “VAS Any Drug Effect, peak value” ([2]; dose 0.05 mg) was 0.5 ± 1.0 and the “VAS Bad Drug Effect, peak value” ([2]; dose 0.05 mg) was 0.8 ± 1.5. For the same substance, the “VAS Good Drug Effect, peak value” ([2]; dose 0.05 mg) was 0.3 ± 0.5, the “VAS Opioid Withdrawal, peak value” ([2]; dose 0.05 mg) was 1.3 ± 2.5 and the “VAS Sickness, peak value” ([2]; dose 0.05 mg) was 0.50 ± 1.00. The “OOWS (total), peak value” ([2]; dose 0.05 mg, mean ± standard deviation) was 0.8 ± 0.5, the “Diastolic BP, peak value” ([2]; dose 0.15 mg) was 76.5 ± 5.1 mmHg and the “Heart Rate, peak value” ([2]; dose 0.15 mg) was 59.5 ± 2.9 bpm. The “OOWS (total), peak value” ([2]; dose 0.15 mg) was 1.5 ± 0.6, the “SOWS (total), peak value” ([2]; dose 0.15 mg) was 1.3 ± 1.9 and the “Systolic blood pressure (BP), peak value” ([2]; dose 0.15 mg) was 118.5 ± 10.0 mmHg. The “VAS Any Drug Effect, peak value” ([2]; dose 0.15 mg) was 1.5 ± 1.7, the “VAS Bad Drug Effect, peak value” ([2]; dose 0.15 mg) was 17.9 ± 32.5 and the “VAS Good Drug Effect, peak value” ([2]; dose 0.15 mg) was 2.2 ± 2.8. The “VAS Opioid Withdrawal, peak value” ([2]; dose 0.15 mg) was 1.4 ± 1.3, the “VAS Sickness, peak value” ([2]; dose 0.15 mg) was 9.3 ± 17.2 and the “Diastolic BP, peak value” ([2]; dose 0.5 mg) was 80.3 ± 5.7 mmHg. The “Heart Rate, peak value” ([2]; dose 0.5 mg) was 61.8 ± 5.7 bpm, the “OOWS (total), peak value” ([2]; dose 0.5 mg) was 3.5 ± 1.3 and the “SOWS (total), peak value” ([2]; dose 0.5 mg) was 4.3 ± 2.2. The “Systolic blood pressure (BP), peak value” ([2]; dose 0.5 mg) was 118.8 ± 7.6 mmHg, the “VAS Any Drug Effect, peak value” ([2]; dose 0.5 mg) was 34.3 ± 15.7 and the “VAS Bad Drug Effect, peak value” ([2]; dose 0.5 mg) was 42.5 ± 23.7. The “VAS Good Drug Effect, peak value” ([2]; dose 0.5 mg) was 6.5 ± 12.3, the “VAS Opioid Withdrawal, peak value” ([2]; dose 0.5 mg) was 21.0 ± 29.7 and the “VAS Sickness, peak value” ([2]; dose 0.5 mg) was 15.8 ± 18.1. The “Diastolic BP, peak value” ([2]; dose 1.0 mg) was 88.3 ± 12.7 mmHg, the “Heart Rate, peak value” ([2]; dose 1.0 mg) was 71.7 ± 4.9 bpm and the “OOWS (total), peak value” ([2]; dose 1.0 mg) was 5.3 ± 4.0. For the same substance, the “SOWS (total), peak value” ([2]; dose 1.0 mg) was 4.3 ± 2.8, the “Systolic blood pressure (BP), peak value” ([2]; dose 1.0 mg) was 134.7 ± 26.4 mmHg and the “VAS Any Drug Effect, peak value” ([2]; dose 1.0 mg) was 24.0 ± 21.7. The “VAS Bad Drug Effect, peak value” ([2]; dose 1.0 mg) was 26.9 ± 33.0, the “VAS Good Drug Effect, peak value” ([2]; dose 1.0 mg) was 1.0 ± 0.0 and the “VAS Opioid Withdrawal, peak value” ([2]; dose 1.0 mg) was 13.1 ± 8.1. For the same substance, the “VAS Sickness, peak value” ([2]; dose 1.0 mg) was 9.0 ± 5.6, the “Would continue after highest dose” value ([2]; individual patients) was “No and Yes (3×)” and the “pupillometry measures (a CNS effect)” value ([2]; up to 1 mg) was “unaffected”. The “effect of 20 mg on morphine's GI effects” value ([3]; 20 mg i.v., 10 mg morphine i.v.) was “completely blocking; also recorded: completely suppressing”, the “peripheral over central potency” value ([3]; humans) was “at least tenfold” and the “Fold-Shift (antinociception ID50)/(GI transit ID50)” value ([4]; antagonist p.o./hydrocodone p.o. co-administered) was 9.53 and 9.5. For the same substance, the “selectivity in blocking peripheral over central opioid effects” value ([4]; mice, oral administration, earlier experiments) was “approximately tenfold”, the “therapeutic window (peripheral side effects reduced without inhibition of analgesia)” value ([4]; mouse, orally co-administered with hydrocodone) was 0.1 to 3.0 mg/kg and the “fold more potent peripherally than centrally” value ([4]; over all administration routes) was 5-10 fold. The “blood half-life relative to most commonly used oral opioid analgesic formulations” value [5] was 3-4 times, the “mean terminal plasma elimination half-life” value ([5]; i.v. infusion 3 mg or 10 mg) was 11.1 ± 2.4 h and the “effect on morphine-induced antinociception” value ([6]; administered intraperitoneally, Wang et al. 2001) was “reverses”. For the same substance, the “potency for reversing morphine-induced antinociception, less potent than naltrexone” value ([6]; published observation, depending on route of administration) was 5-10 fold, the “effect on morphine-induced pupil constriction” value [7] was “no detectable effect” and the tolerability [8] was “well tolerated”. For the same substance, the “effect on stereotypic circling induced by morphine” value [9] was “prevents”, the “effect on morphine-induced analgesia” value [10] was “no detectable effect” and the “oral bioavailability (into the circulation), estimated” value ([11]; humans, estimated) was “approximately 25%”. For the same substance, the bioavailability ([11]; rodent, previously determined data not shown) was 14%, the oral bioavailability ([11]; species not stated) was about 20% and the subjects experiencing laxation ([12]; 0.05 mg dose) was 25%. The “time of laxation post dose” value ([12]; 0.05 mg dose) was 101 min, the subjects experiencing laxation ([12]; 0.5 mg dose) was 75% and the “effect on bowel movement” value ([12]; 0.5 mg i.v.) was “near normal bowel movement; also recorded: immediate bowel movement”. The subjects experiencing laxation ([12]; 1.0 mg dose) was 67%, the “time of laxation post dose” value ([12]; 1.0 mg dose, both subjects) was 5 min and the “Lowest dose producing laxation” value ([12]; individual patients) was 0.5 mg (2×) and 0.05 mg. The “dose sufficient initially to cause laxation” value ([12]; iv, methadone maintenance patients) was 0.5 mg, the “doses accelerating GI transit time (lactulose/H2 test)” value ([12]; two evaluable subjects) was at least 0.25 mg and the AUC ([13]; Subject 1) was 7.8 ng·h/mL. The CL ([13]; Subject 1) was 128 L/h, the t1/2 ([13]; Subject 1) was 2.2 h and the AUC ([13]; Subject 2) was 7.6 ng·h/mL. It also gave a CL ([13]; Subject 2) of 131 L/h, a t1/2 ([13]; Subject 2) of 2.43 h and a Cmax ([13]; Subject 2, serum) of 3.2 ng/mL. For the same substance, the “Half-life of active metabolites” value [14] was 12 h, the “Bioavailability for CNS (central) effects” value ([14]; given orally) was about 25% and the “Strength (as compared to 6β-naltrexol)” value ([14]; given orally, opioid agonist naïve or non-dependent subject) was 1. For the same substance, the “Antinociception ID50” value ([15]; antagonist i.v. pretreatment, hydrocodone A90 3.2 mg/kg i.v.) was 0.222 mg/kg, the “Antinociception ID50” value [15, 16] was 12.3 mg/kg and the “Antinociception ID50” value ([15]; antagonist p.o. pretreatment, hydrocodone A90 3.2 mg/kg i.v.) was 2.35 mg/kg. The “time of peak effect of antinociception inhibition” value ([15]; i.v. administration) was 90 min and the “time of peak effect of antinociception inhibition” value ([15]; p.o. administration) was 120 min.
